Measurements reported in US10596172B2 (Celgene CAR LLC, priority 2008, dated 2020).
Like-named read-outs stand apart in the source and are kept apart here.

Tests used:
JAK3 = JAK3 (Homo sapiens (Human), UniProt P52333); assay: Omnia assay for potency assessment against the active form of JAK3; assay type: biochemical; details: read-out: JAK3 Inhibition
[1] = system: B cell lymphoma cell lines; assay: B cell lymphoma proliferation assay; assay type: cell-based
TEC kinase = TEC kinase (Homo sapiens (Human), UniProt P42680); assay: Mass spectrometry for TEC kinase (tryptic digest); assay type: binding; details: 3 hrs at 10x excess
Procedure: (§1) TEC kinase (45 pmols; Invitrogen) was incubated with (I-2) (450 pmols) for 3 hrs at 10× excess prior to tryptic digestion. Iodoacetamide was used as the alkylating agent after compound incubation. […] For tryptic digests a 5 ul aliquot (7.5 pmols) was diluted with 15 ul of 0.1% TFA prior to micro C18 Zip Tipping directly onto the MALDI target using alpha cyano-4-hydroxy cinnamic acid as the matrix (5 mg/ml in 0.1% TFA:Acetonitrile 50:50).
As depicted in FIG. 6, the expected peptide ([…]) to be modified was immediately evident after reaction with I-2 (MI mass of 359.17 Da) at MH+ of 1294.72. The peptide was also quite evident in the control sample as modified by Iodacetamide at MH+ of 992.56. […] There was no evidence of other modified peptides.
For tryptic digests the instrument was set in Reflectron mode with a pulsed extraction setting of 2200. Calibration was done using the Laser Biolabs Pep Mix standard ([…], 1296.69, 1672.92, 2093.09, 2465.20). For CID/PSD analysis the peptide was selected using cursors to set ion gate timing and fragmentation occurred at a laser power about 20% higher and He was used as the collision gas for CID. Calibration for fragments was done using the P14R fragmentation calibration for the Curved field Reflectron.
as §1, with “(I-4)” for “(I-2)”
As depicted in FIG. 7, the expected peptide ([…]) to be modified was immediately evident at MH+ of 1355.72. This is the mass to be expected when compound I-4, with an adduct mass of 420.21, is added to the peptide mass of 935.51. The peptide was also quite evident in the control sample as modified by Iodacetamide at MH^+ of 992.56. […] There was no evidence of other modified peptides. […]

BTK = BTK (Rattus norvegicus, UniProt Q5S255); assay: BTK occupancy from in vivo samples by ELISA; details: po, rats dosed orally 30 mg/kg
Procedure: All samples were prepared with equal concentrations of Biorad lysis buffer (Hercules, Calif., USA), 0.5% bovine serum albumin in PBS with 0.05% Tween-20 to give a final concentration of 1 μM I-215. Samples were incubated in a mixing plate for 1 hr at room temperature while shaking to allow probe compound I-215 to bind to free BTK. After incubation with I-215, samples were added to a washed, streptavidin-coated ELISA plate (Pierce, Rockford, Ill., USA) and incubated for 1 hr at room temperature while shaking. The plate was then washed with PBS containing 0.05% Tween-20 using an automatic plate washer. Anti-BTK antibody was prepared at 1:1000 dilution in 0.5% BSA in PBS (0.05% Tween-20) and added to the ELISA plate. The plate was incubated for 1 hr at room temperature while shaking. The plate was washed as described above and the secondary HRP antibody was prepared at 1:5000 dilution in 0.5% BSA in PBS (0.05% Tween-20). The plate was incubated and washed as described above. TMB was added to the plate, and OD650 was monitored until reaching 1 OD unit. The reaction was then stopped with addition of H2SO4. The plate was analyzed using Gen 5 software, and a 4 Parameter Logistic curve was employed to quantitate samples. Recombinant BTK (Invitrogen, Carlsbad, Calif., USA) was used for the standard curve.
Rats were dosed orally with 30 mg/kg of compound and spleens were harvested either 2 or 24 hours after compound treatment. Rat spleens were disrupted between two microscope slides coated with frosted glass to recover single cell suspensions. Red blood cells were lysed by incubating with RBC lysis buffer (Boston BioProducts) for 2 minutes at room temperature, the cells were then resuspended in RPMI complete media and pelleted by centrifugation. Rat B cells were isolated by positive selection with B220+ antibody-magnetic bead conjugates, purified by MACS column and lysed in Bio-Rad lysis buffer at a concentration of 10 million cells/100 μl. Lysates were analyzed employing the biotinylated probe compound I-215 in an ELISA protocol as described in detail in Example 278.

[2] = DHL4 B cell lymphoma cell line, read-out: EC50 (μM) DHL4
[3] = Homo sapiens, DOHH-2, DOHH2 B cell lymphoma cell line, read-out: EC50 (μM) DOHH2
[4] = Homo sapiens, WSUDLCL2, WSU-DLCL2 B cell lymphoma cell line, read-out: EC50 (μM) WSU-DLCL2
[5] = spleen B cells harvested 2 hours after treatment, read-out: % BTK Occupancy 2 h
[6] = spleen B cells harvested 24 hours after treatment, read-out: % BTK Occupancy 24 h

BTK, sequence (Q5S255 1-660): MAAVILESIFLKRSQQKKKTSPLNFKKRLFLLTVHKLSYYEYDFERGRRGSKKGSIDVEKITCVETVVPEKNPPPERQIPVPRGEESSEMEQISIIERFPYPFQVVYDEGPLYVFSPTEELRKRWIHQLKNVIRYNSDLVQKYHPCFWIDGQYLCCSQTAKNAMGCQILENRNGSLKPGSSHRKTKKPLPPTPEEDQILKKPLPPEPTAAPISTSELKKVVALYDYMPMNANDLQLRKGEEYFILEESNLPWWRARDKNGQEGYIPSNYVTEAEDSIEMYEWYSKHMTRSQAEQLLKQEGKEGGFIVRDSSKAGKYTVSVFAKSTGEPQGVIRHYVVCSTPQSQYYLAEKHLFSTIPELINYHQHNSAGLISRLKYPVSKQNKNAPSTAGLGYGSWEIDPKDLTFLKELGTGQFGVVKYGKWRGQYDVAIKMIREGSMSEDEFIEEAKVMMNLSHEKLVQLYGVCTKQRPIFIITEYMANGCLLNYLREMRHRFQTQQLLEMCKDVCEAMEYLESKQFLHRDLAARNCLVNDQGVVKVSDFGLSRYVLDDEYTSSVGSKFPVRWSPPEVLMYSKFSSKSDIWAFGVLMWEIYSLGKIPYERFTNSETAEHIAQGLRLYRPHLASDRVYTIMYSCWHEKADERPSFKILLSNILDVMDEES
JAK3, sequence (P52333 whole entry): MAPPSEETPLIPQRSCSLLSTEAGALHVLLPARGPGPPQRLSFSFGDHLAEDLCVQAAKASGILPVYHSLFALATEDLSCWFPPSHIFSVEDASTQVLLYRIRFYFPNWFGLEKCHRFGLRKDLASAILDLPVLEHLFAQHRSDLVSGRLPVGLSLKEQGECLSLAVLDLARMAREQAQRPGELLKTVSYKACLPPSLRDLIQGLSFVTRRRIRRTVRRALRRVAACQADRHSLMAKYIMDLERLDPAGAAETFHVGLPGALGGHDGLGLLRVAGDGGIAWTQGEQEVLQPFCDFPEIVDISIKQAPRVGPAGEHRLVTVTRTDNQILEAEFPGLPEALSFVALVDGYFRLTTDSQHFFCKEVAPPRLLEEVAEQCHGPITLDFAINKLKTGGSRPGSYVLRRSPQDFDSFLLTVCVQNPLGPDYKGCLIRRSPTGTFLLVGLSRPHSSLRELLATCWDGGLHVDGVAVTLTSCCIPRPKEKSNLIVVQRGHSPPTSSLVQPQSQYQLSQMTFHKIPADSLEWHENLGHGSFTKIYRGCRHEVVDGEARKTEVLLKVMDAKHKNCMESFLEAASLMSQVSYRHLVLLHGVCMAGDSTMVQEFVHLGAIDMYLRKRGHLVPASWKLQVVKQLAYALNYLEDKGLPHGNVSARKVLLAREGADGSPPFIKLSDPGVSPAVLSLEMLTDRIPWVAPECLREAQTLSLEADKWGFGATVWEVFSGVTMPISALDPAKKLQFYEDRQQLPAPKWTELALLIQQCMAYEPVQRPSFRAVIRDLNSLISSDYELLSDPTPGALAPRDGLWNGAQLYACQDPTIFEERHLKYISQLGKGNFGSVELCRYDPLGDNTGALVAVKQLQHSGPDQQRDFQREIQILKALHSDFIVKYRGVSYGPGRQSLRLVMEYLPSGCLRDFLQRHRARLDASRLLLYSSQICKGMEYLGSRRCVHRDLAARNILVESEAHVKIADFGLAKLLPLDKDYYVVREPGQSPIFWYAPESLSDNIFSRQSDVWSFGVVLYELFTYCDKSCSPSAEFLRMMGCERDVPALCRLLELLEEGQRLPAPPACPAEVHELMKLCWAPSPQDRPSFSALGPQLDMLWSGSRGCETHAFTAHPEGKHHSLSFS
TEC kinase, sequence (P42680 whole entry): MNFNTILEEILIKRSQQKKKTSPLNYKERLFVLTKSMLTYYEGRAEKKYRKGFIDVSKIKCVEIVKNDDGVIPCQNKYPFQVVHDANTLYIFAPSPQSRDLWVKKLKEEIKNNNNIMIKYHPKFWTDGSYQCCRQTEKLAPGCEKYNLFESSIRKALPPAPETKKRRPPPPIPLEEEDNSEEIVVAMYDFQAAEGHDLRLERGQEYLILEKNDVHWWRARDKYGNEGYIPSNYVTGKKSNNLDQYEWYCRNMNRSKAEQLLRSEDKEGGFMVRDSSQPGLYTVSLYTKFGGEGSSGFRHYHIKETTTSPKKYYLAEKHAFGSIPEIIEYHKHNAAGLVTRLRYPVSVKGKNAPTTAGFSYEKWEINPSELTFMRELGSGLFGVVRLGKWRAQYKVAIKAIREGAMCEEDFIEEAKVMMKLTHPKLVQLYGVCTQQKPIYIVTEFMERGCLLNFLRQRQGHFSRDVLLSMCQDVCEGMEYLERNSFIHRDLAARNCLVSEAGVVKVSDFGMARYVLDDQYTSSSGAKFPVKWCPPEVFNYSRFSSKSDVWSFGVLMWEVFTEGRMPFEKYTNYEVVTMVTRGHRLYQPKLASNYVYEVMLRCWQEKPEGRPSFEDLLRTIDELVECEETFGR

Row | IC50 (JAK3) [nM] | EC50 [1, 2] [µM] | EC50 [1, 3] [µM] | EC50 [1, 4] [µM] | covalent modification of TEC kinase peptide GCLLNFLR (Cys449) by mass spectrometry (TEC kinase) | receptor occupancy at 30 mg/kg (BTK; [5]) [%] | receptor occupancy at 30 mg/kg (BTK; [6]) [%] | Compound
1 | < 10 | 1 to 10 | 1 to 10 | 1 to 10 | reaction was complete | 98 | 78 | C=CC(=O)Nc1cccc(Nc2nc(Nc3ccccc3)ncc2C)c1 [Compound I-7, N-(3-(5-methyl-2-(phenylamino)pyrimidin-4-ylamino)phenyl)acrylamide]
2 | < 10 | 0.1 to 1 | 0.1 to 1 | 0.1 to 1 | reaction was complete | 87 | 68 | Cc1cccc(Nc2nc(Nc3cccc(NC(=O)/C=C/CN(C)C)c3)ncc2F)c1 [Compound I-4, (E)-4-(dimethylamino)-N-(3-(5-fluoro-4-(m-tolylamino)pyrimidin-2-ylamino)phenyl)but-2-enamide]
